Assay results: patent US20110124647A1, “INSECTICIDAL DERIVATIVES OF SUBSTITUTED BENZYLAMINES” (priority 2007, published 2011)
Blank lines part the entries; values can stand above or below the compound they belong to.

What was measured:
[1] = tested on: green peach aphid (Myzus persicae); test: Myzus test (MYZUPE), spray treatment; format: in vivo; conditions: 20 g/ha
Procedure: [table] To produce a suitable preparation of active compound, 1 part by weight of active compound is mixed with the stated amounts of solvent and emulsifier, and the concentrate is diluted with emulsifier-containing water to the desired concentration. Disks of Chinese cabbage (Brassica pekinensis) which are infested with all stages of the green peach aphid (Myzus persicae) are sprayed with a preparation of active compound of the desired concentration. After the desired period of time, the effect in % is determined. 100% means that all aphids have been killed; 0% means that none of the aphids have been killed. [table] To produce a suitable preparation of active compound, 1 part by weight of active compound is mixed with the stated amounts of solvent and emulsifier, and the concentrate is diluted with emulsifier-containing water to the desired concentration. Disks of Chinese cabbage (Brassica pekinensis) which are infested with all stages of the green peach aphid (Myzus persicae) are sprayed with a preparation of active compound of the desired concentration. After the desired period of time, the effect in % is determined. 100% means that all aphids have been killed; 0% means that none of the aphids have been killed.

[2] = tested on: greenhouse red spider mite (Tetranychus urticae); test: Tetranychus test, OP-resistant (TETRUR), spray treatment; format: in vivo; conditions: 100 g/ha
Procedure: To produce a suitable preparation of active compound, 1 part by weight of active compound is mixed with the stated amounts of solvents and emulsifier, and the concentrate is diluted with emulsifier-containing water to the desired concentration.
Discs of bean leaves (Phaseolus vulgaris) which are infested by all stages of the greenhouse red spider mite (Tetranychus urticae) are sprayed with a preparation of active compound of the desired concentration.
After the desired period of time, the effect in % is determined. 100% means that all spider mites have been killed; 0% means that none of the spider mites have been killed.

Compound: CC(NC(=O)NCCCl)c1ccccc1Cl (stereo not drawn) [1-(2-chloroethyl)-3-[1-(2-chlorophenyl)ethyl]urea]
logP (Log P): 2.3

Compound: C[C@H](NC(=O)NCCCl)c1ccccc1 [1-(2-chloroethyl)-3-[(1S)-1-phenylethyl]urea]
logP (Log P): 1.76

Compound: COCCNC(=S)N1CCOC1=NC(C)c1ccccc1 (stereo not drawn) [Compound 2]
1. MYZUPE spray appl. % 6 d [1]: 100%
2. TETRUR spray appl. % 6 d [2]: 90%

Compound: CC(N=C1OCCN1C(=S)NCC(F)(F)F)c1ccccc1 (stereo not drawn) [Compound 3]
1. MYZUPE spray appl. % 6 d [1]: 100%
2. TETRUR spray appl. % 6 d [2]: 70%

logP (Log P): 4.08
Compound: COCCNC(=S)N1CCO/C1=N\C(C)c1ccccc1Cl (stereo not drawn) [Compound 10, (2Z)-2-{[1-(2-chlorophenyl)ethyl]imino}-N-(2-methoxyethyl)-1,3-oxazolidine-3-carbothioamide]

logP (Log P): 3.07
Compound: C[C@H](/N=C1\OCCN1C(=S)NCC#N)c1ccccc1 [Compound 94, (2Z)—N-(cyanomethyl)-2-[(1-phenylethyl)imino]-1,3-oxazolidine-3-carbothioamide]

Compound: CCC(N=C1OCCN1C(=S)NCc1ccccc1)c1ccccc1 (stereo not drawn) [compound 68]
log P (acidic) (Log P; acidic, Phys. Data cells marked (C)): 4.68 (C)
